From ChEMBL document CHEMBL5465560, “Selectivity Literature for EUbOPEN Chemogenomic Library” (2024)

Columns and labels:
[1] = biological target: Phosphatidylinositol 4,5-bisphosphate 3-kinase catalytic subunit beta isoform (Homo sapiens) (UniProt P42338); test: Selectivity interaction (Adapta Assay) EUB0001632a PIK3CB; conditions: at 10 µM
D(2) dopamine receptor = D(2) dopamine receptor (Homo sapiens, UniProt P14416); test: Selectivity interaction (Panel of kinases, GPCRs, ion channels and transporters (enzymatic assay)) EUB0000266bCl DRD2
[2] = biological target: T1, Phosphatidylinositol 5-phosphate 4-kinase type-2 gamma (Homo sapiens) (UniProt Q8TBX8); test: Selectivity interaction (ActivX KiNativ screen (kinase selectivity in THP-1 cell lysates)) EUB0000639a PIP4K2C; type: subcellular; conditions: lysate, at 5 µM
T1 sequence (whole entry): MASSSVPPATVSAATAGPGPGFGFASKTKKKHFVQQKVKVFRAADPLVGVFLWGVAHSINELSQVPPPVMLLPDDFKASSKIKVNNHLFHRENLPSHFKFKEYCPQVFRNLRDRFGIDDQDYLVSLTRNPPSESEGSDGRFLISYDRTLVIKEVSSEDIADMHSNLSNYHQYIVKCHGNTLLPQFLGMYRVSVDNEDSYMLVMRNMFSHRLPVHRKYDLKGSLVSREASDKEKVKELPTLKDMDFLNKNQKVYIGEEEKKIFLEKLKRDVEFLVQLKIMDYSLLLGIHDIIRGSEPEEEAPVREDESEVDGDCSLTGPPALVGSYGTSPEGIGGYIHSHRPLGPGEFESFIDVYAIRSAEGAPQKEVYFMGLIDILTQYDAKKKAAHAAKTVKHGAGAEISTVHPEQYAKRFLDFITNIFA

[3] = biological target: 5'-AMP-activated protein kinase catalytic subunit alpha-2 (Homo sapiens) (UniProt P54646); test: Selectivity interaction (ActivX KiNativ screen (kinase selectivity in THP-1 cell lysates)) EUB0000639a PRKAA2; type: subcellular; conditions: lysate, at 0.04 µM
[4] = biological target: Phosphatidylinositol 3-kinase catalytic subunit type 3 (Homo sapiens, UniProt Q8NEB9); test: Selectivity interaction (ActivX KiNativ screen (kinase selectivity in THP-1 cell lysates)) EUB0000639a PIK3C3; type: subcellular; conditions: lysate, at 0.01 µM
Phosphatidylinositol 3-kinase catalytic subunit type 3, sequence (Q8NEB9 whole entry): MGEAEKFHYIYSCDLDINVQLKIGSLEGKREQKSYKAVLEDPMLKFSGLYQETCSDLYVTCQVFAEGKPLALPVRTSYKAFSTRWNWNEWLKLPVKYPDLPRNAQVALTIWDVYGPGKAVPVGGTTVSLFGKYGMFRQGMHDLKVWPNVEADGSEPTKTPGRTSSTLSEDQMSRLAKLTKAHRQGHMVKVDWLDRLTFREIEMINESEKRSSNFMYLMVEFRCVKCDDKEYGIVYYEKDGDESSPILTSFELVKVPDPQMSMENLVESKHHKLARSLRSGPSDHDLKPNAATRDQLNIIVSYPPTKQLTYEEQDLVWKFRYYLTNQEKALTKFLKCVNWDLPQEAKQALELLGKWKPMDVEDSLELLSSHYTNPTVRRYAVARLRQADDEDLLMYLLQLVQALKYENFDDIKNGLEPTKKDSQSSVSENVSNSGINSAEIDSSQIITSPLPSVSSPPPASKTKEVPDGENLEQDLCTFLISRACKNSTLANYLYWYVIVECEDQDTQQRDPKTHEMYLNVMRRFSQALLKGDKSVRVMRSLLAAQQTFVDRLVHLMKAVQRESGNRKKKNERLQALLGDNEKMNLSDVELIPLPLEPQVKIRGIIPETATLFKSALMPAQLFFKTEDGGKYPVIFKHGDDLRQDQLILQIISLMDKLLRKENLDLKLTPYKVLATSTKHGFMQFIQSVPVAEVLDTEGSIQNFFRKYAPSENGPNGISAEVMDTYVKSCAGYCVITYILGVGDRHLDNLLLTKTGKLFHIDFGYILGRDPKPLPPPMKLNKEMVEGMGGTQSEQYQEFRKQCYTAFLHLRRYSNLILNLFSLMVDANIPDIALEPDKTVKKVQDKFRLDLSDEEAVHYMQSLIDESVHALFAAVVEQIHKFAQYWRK

Focal adhesion kinase 1 = Focal adhesion kinase 1 (Homo sapiens, UniProt Q05397); test: Selectivity interaction (ActivX KiNativ screen (kinase selectivity in THP-1 cell lysates)) EUB0000639a PTK2; type: subcellular; conditions: lysate, at 1 µM
[5] = biological target: T2, Mitogen-activated protein kinase kinase kinase 2 (Homo sapiens) (UniProt Q9Y2U5); test: Selectivity interaction (ActivX KiNativ screen (kinase selectivity in THP-1 cell lysates)) EUB0000639a MAP3K2; type: subcellular; conditions: lysate, at 0.2 µM
T2 sequence (whole entry): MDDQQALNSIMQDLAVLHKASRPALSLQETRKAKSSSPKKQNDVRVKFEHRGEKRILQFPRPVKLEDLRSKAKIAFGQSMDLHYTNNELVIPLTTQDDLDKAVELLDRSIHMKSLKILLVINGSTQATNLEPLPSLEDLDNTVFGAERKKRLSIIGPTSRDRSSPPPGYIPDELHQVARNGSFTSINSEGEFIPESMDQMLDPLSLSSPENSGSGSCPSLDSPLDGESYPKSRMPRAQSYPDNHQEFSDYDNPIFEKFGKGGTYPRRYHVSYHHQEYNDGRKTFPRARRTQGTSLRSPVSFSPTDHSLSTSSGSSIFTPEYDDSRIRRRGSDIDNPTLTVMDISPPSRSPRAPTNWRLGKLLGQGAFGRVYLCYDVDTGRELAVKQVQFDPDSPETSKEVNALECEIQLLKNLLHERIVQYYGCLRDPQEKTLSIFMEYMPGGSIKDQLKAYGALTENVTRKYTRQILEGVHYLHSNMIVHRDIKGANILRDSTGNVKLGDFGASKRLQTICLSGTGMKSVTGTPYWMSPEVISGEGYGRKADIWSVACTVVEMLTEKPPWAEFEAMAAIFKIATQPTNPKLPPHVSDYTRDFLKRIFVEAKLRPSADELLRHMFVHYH

[6] = biological target: Ribosomal protein S6 kinase alpha-1 (Homo sapiens, UniProt Q15418); test: Selectivity interaction (KinomeScan (DiscoverX)) EUB0000695a RPS6KA1; conditions: at 100 nM
Ribosomal protein S6 kinase alpha-1, sequence (Q15418 whole entry): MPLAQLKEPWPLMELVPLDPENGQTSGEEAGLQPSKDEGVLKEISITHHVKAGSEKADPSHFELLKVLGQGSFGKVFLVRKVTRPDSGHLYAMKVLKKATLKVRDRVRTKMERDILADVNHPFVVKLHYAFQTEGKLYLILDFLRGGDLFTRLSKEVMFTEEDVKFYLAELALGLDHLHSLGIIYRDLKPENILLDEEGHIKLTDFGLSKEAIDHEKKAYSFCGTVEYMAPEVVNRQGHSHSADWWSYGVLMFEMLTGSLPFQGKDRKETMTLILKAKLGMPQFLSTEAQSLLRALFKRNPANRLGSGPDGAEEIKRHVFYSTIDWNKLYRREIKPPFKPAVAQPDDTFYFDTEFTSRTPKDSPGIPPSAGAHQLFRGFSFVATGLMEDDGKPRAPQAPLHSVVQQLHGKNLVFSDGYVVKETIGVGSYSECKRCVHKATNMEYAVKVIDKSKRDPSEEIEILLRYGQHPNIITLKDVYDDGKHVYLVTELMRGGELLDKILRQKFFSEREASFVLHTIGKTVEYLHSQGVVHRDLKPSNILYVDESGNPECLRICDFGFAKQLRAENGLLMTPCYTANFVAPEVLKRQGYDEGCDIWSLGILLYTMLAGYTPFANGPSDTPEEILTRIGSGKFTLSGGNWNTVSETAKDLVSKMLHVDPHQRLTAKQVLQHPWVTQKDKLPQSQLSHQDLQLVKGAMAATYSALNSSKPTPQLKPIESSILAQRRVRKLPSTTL

[7] = biological target: T3, Mitogen-activated protein kinase 13 (Homo sapiens) (UniProt O15264); test: Selectivity interaction (KinomeScan (DiscoverX)) EUB0001049a MAPK13; conditions: at 1 µM
T3 sequence (whole entry): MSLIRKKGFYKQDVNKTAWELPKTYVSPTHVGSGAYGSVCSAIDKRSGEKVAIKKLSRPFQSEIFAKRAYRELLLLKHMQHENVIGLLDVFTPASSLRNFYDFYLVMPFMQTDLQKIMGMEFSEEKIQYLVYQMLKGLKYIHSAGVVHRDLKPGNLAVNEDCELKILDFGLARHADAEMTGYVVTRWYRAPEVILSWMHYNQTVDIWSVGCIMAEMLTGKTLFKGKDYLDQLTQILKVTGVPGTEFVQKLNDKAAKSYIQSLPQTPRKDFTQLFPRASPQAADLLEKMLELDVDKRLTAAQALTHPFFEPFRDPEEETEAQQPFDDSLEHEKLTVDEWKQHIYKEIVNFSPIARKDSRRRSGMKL

[8] = biological target: Activin receptor type-2B (Homo sapiens) (UniProt Q13705); test: Selectivity interaction (KinomeScan (DiscoverX)) EUB0001049a ACVR2B; conditions: at 1 µM
[9] = biological target: Mitogen-activated protein kinase 8 (Homo sapiens, UniProt P45983); test: Selectivity interaction (KinomeScan (DiscoverX)) EUB0001049a MAPK8; conditions: at 1 µM
[10] = biological target: Serine/threonine-protein kinase PAK 2 (Homo sapiens) (UniProt Q13177); test: Selectivity interaction (Millipore kinase profiler) EUB0000124b PAK2; conditions: at 10 µM
[11] = biological target: Transcription intermediary factor 1-alpha (Homo sapiens) (UniProt O15164); test: Selectivity interaction (Bromodomain panel (DSF asssay)) EUB0000270b TRIM24
[12] = biological target: Non-receptor tyrosine-protein kinase TYK2 (Homo sapiens, UniProt P29597); test: Selectivity interaction (KinomeScan (DiscoverX)) EUB0000229b TYK2; conditions: at 10 µM
[13] = system: Epidermal growth factor receptor (Homo sapiens), P00533 [L858R,T790M]; test: (§1) Selectivity interaction (KinomeScan (DiscoverX)) EUB0000092b EGFR; conditions: at 10 µM
Epidermal growth factor receptor (Homo sapiens), P00533 [L858R,T790M], sequence (P00533 whole entry T790M/L858R, looked up): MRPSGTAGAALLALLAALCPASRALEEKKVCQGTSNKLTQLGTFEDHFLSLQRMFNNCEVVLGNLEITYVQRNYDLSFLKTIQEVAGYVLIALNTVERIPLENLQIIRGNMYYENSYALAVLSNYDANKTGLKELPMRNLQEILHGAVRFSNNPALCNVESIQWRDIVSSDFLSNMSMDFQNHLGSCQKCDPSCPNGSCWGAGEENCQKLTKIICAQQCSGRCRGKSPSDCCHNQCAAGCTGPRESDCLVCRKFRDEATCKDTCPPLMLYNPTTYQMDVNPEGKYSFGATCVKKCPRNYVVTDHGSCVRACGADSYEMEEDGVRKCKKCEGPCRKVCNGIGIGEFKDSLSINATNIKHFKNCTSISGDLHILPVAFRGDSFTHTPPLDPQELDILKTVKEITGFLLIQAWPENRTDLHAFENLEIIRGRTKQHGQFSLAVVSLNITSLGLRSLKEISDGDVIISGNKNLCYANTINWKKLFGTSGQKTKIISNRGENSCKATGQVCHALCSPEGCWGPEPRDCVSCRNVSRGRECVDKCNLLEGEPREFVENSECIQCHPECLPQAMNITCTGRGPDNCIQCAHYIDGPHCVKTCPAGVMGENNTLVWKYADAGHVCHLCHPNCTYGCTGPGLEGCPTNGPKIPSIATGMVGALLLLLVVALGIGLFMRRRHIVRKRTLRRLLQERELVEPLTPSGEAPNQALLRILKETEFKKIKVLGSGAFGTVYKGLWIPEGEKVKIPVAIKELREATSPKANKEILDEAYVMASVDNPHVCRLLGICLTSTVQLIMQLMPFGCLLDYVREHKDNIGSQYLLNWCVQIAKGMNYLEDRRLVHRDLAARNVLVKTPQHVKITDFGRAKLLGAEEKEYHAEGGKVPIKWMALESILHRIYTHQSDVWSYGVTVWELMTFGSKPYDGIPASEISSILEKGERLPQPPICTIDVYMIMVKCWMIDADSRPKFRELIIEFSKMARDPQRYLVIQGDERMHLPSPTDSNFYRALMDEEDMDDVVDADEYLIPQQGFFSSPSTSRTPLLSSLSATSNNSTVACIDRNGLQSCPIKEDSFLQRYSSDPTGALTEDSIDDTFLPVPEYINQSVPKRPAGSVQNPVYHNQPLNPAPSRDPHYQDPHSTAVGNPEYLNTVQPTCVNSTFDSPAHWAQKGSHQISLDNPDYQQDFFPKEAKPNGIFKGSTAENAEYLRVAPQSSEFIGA

[14] = biological target: Epidermal growth factor receptor (Homo sapiens, UniProt P00533); test: as §1; conditions: at 10 µM
[15] = system: Epidermal growth factor receptor (Homo sapiens), P00533 [L858R]; test: as §1; conditions: at 10 µM
Epidermal growth factor receptor (Homo sapiens), P00533 [L858R], sequence (P00533 whole entry L858R): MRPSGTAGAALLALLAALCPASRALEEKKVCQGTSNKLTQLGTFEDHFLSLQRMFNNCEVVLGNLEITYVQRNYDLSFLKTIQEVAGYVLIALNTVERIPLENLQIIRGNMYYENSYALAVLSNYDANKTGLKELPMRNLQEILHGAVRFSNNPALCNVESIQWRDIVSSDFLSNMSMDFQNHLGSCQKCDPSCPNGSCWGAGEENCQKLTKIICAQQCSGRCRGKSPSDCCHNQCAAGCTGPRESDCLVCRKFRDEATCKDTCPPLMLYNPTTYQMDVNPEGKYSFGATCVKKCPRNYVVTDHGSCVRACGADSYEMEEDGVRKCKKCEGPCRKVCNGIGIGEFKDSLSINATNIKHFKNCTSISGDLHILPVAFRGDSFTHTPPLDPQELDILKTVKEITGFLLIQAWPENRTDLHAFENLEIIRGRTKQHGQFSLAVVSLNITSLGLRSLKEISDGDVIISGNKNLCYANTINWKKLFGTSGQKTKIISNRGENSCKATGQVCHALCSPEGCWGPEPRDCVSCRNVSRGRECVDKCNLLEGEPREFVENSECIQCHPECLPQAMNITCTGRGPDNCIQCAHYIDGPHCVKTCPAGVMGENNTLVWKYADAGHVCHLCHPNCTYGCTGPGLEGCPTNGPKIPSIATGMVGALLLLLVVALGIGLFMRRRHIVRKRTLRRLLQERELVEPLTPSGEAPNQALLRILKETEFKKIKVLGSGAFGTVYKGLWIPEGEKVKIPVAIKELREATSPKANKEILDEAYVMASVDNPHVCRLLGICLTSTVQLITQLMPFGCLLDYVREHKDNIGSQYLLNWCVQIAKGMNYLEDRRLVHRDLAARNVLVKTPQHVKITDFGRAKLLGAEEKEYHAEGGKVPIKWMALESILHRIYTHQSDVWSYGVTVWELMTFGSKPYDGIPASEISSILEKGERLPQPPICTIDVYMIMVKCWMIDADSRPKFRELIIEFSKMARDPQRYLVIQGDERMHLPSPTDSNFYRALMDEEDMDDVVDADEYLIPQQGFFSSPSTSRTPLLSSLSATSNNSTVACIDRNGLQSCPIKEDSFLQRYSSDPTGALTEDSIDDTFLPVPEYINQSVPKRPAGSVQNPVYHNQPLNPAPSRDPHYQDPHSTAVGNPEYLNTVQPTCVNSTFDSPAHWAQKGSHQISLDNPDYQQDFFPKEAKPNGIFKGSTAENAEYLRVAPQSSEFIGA

[16] = system: Epidermal growth factor receptor (Homo sapiens), P00533 [UNDEFINED MUTATION]; test: as §1; conditions: at 10 µM
[17] = system: Tyrosine-protein kinase ABL1 (Homo sapiens), P00519 [T315I]; conditions: at 10 µM
[18] = biological target: Cyclin-dependent kinase 2 (Homo sapiens, UniProt P24941); test: Selectivity interaction (KinomeScan (DiscoverX)) EUB0000618a CDK2; conditions: at 10 µM
[19] = biological target: Serine/threonine-protein kinase WNK2 (Homo sapiens) (UniProt Q9Y3S1); test: Selectivity interaction (ActivX KiNativ screen (ex vivo kinase selectivity in human PBMCs)) EUB0001619a WNK2; type: cell-based; conditions: PBMC, at 1 µM

Phosphatidylinositol 4,5-bisphosphate 3-kinase catalytic subunit beta isoform (Homo sapiens), sequence (P42338 whole entry, looked up, canonical isoform): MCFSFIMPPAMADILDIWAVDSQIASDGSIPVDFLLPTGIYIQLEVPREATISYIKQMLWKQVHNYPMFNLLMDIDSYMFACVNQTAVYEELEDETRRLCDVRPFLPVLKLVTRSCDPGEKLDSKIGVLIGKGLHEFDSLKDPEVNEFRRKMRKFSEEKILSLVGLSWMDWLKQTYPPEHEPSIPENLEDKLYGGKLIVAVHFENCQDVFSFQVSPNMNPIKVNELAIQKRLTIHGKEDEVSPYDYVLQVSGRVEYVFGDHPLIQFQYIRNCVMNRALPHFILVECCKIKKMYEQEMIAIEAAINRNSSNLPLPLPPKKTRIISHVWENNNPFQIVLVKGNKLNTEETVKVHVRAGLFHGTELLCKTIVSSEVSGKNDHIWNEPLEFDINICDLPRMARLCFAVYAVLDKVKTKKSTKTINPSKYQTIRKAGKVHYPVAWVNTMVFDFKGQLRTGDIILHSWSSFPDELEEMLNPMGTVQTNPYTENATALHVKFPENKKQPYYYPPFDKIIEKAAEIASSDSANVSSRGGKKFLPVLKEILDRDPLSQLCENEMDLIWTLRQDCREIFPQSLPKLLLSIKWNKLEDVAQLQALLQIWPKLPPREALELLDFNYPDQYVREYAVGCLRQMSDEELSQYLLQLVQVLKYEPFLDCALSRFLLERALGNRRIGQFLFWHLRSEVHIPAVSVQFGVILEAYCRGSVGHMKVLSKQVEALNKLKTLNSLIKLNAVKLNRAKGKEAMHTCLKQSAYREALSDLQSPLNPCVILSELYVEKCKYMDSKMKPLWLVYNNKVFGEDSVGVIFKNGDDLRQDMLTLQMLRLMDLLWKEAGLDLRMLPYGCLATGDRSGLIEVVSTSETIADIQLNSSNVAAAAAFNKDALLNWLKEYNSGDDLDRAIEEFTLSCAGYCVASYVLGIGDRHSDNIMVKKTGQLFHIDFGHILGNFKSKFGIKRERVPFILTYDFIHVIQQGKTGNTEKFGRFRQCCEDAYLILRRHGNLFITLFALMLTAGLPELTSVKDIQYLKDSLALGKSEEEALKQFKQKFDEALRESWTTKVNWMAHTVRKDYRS

In the case of `Cn1cc(-n2cnc3c(NCc4nc5cc(Cl)c(Cl)cc5[nH]4)nc(N4CCOCC4)nc32)cn1`, the % of inhibition [1] is reported as 11.6%.
With `CCn1c(-c2nc3cc(C(=O)N4CCCC(N)C4)ccc3n2C)cc2ccccc21` (stereo unspecified) the pXC50 (D(2) dopamine receptor) was under 4 M.
`CC[C@@H]1[C@H](F)C(=O)N[C@@H]1COc1nccc2cc(C(N)=O)c(OC)cc12` [ZIMLOVISERTIB] showed a % of inhibition [2] of 87.4%, a % of inhibition [3] of -11.5% and a % of inhibition [4] of -21%. It also gave a % of inhibition (Focal adhesion kinase 1) of -38.6% and a % of inhibition [5] of -1.4%.
Compound `Cc1cc(F)c(C(=O)Nc2cccc(-c3nncn3C(C)C)n2)cc1-n1cnc(C2CC2)c1` has a % of control [6] of 88%.
Work on `COc1cc(Nc2nc(C)cc(-c3cnn4nc(OC)ccc34)n2)cc(C(F)(F)F)c1` yielded a % of control [7] of 95%, a % of control [8] of 92% and a % of control [9] of 88%.
Work on `CC(=O)Nc1cccc(-n2c(=O)n(C3CC3)c(=O)c3c(Nc4ccc(I)cc4F)n(C)c(=O)c(C)c32)c1` yielded a % of control [10] of 96%.
For `Cc1cc(CN)cc(C)c1-c1ncn(C)c1-c1cncn1C`, the dTM [11] was -0.53 K.
Compound `COc1cc(N(C)c2ccnc3ccc(C(F)(F)F)cc23)cc(OC)c1OC` has a % binding [12] of 89%.
Work on `CCC(=O)N1CCN(c2ccc(-n3c(=O)ccc4cnc5ccc(-c6cnc7ccccc7c6)cc5c43)cc2C(F)(F)F)CC1` yielded a % of control [13] of 100%, a % of control [14] of 85% and a % of control [15] of 100%. The % of control [16] was 100%.
Work on `Cc1cc([C@@H](C)Nc2ccccc2C(=O)O)c2nc(N3CCOCC3)cc(=O)n2c1` [AZD-6482] yielded a % of control [17] of 100%.
With `O[C@H]1CC[C@H](Nc2ncc3nc(Nc4c(F)cc(F)cc4F)n([C@H]4CCOC4)c3n2)CC1` the % of control [18] was 100%.
`N#Cc1cccc(-c2c[nH]c3ncnc(N4CCOCC4)c23)c1` gave a % of inhibition [19] of -6%.
